Laboratory results reported in patent publication US20090253794A1, “Fibroblast Activator, Collagen Production Promoter, Collagen Contraction Promoter, Hyaluronic Acid Production Promoter, ATP Production Promoter, Melanin Formation Inhibitor, and Agent for External Application to the Skin” (priority 2005, published 2009).

Legend:
human normal melanocytes = assay: melanin formation suppression test in human melanocytes (L-DOPA, absorbance 495 nm); assay type: cell-based; details: 5 days, relative value, without addition of sample = 100
Description: A melanin formation suppression test was performed using human melanocytes (manufactured by KURABO INDUSTRIES LTD.). That is, human normal melanocytes amplified in Medium 254 medium (human melanocyte medium added with HMGS, manufactured by KURABO INDUSTRIES LTD.) was added to a 96 well plate at 10^4 cells per well, and cultured in a carbon dioxide incubator adjusted to 5% (v/v) carbon dioxide gas at 37° C. for about 24 hr. Then, pure water or a sample (conagenin) dissolved in pure water was added thereto to a final concentration of 0.1 mM, 1.0 mM or 10 mM. As a positive control, kojic acid (manufactured by Sigma Ltd.) was added to the same concentration. The cells were cultured for 5 more days under the same conditions. To the recovered cells was added 50 μl of cell suspension (PBS buffer containing Triton X-100 at 0.1% (v/v)). After thorough suspending, the suspension was stood at 4° C. for 1 hr. Thereto was added 50 μl of 10 mM L-DOPA (manufactured by Nacalai Tesque), and the mixture was incubated at 37° C. for 1 hr. Thereafter, the absorbance at 495 nm was measured by a plate reader (multiscanplus MKII, manufactured by Japan Flow Laboratory), and the melanin formation amount was measured (shown in a relative value to the value without addition of sample as 100).

B16 melanoma cells = assay: melanin formation suppression test, visual whitening and cell mass volume; assay type: cell-based, mouse; design: key to level of whitening: whitening high→++; whitening moderate→+; somewhat whitened→+−; no whitening→−; details: 5 days; for level of whitening: visual evaluation; for change in cell mass volume: visual, cytotoxicity index
Description: A melanin formation suppression test was performed as follows using mouse melanoma cells. First, 2×10^4 B16 melanoma cells were plated in a 35 mm diameter dish containing Eagle's minimum nutrition medium (3 ml) supplemented with 10% (v/v) fetal bovine serum, and cultured in a carbon dioxide incubator adjusted to 5% (v/v) carbon dioxide gas at 37° C. for about 24 hr. Then, pure water or a sample dissolved in pure water was added thereto to a final concentration of 0.1 mM, 1.0 mM or 10 mM. As a positive control, kojic acid (manufactured by Sigma Ltd.) was added to the same concentration. The cells were cultured for 5 more days under the same conditions, treated with trypsin, and centrifuged to collect the cells in a 1.5 ml Eppendorf. The level of whitening of the cells was visually evaluated, and indicated: whitening high→++; whitening moderate→+; somewhat whitened→+−; no whitening→−. Simultaneously, changes in the cell mass volume was visually evaluated and used as a cytotoxicity index.

[1] = test system: normal human skin fibroblasts; assay: type I collagen production promoting effect (PIP in culture supernatant) and cell count; assay type: cell-based; details: for produced amount of collagen: 24 hr, relative value, negative control = 100, n=3 average; for number of cells: cells per well, counted visually after trypsin, negative control 4.9 × 10^5
Description: Normal human skin fibroblasts (manufactured by KURABO INDUSTRIES LTD.) were added to a 24 well plate at 5×10^4 cells per well. Using Medium 106S medium (manufactured by KURABO INDUSTRIES LTD.) containing 2% FBS, the cells were cultured under an atmosphere of 95% (V/V) air-5% (V/V) carbon dioxide gas at 37° C. for 24 hr. The medium was changed to Medium 106S medium (free of FBS) containing each sample, and the cells were cultured under the same conditions for 24 hr. After the completion of culture, the culture supernatant was taken to evaluate the type I collagen biosynthesizability and, to count the cells, the cells were harvested by a trypsin treatment. The samples used were two kinds of conagenin contents of 0.1 μM, 1 μm, 10 μM, 100 μM, 1 mM (final concentration), and magnesium L-ascorbyl phosphate (manufactured by Wako Pure Chemical Industries, Ltd., final concentration 100 μM) as a positive control (one added with PBS instead of the sample was used as a negative control).

normal human fibroblasts = assay: hyaluronic acid production promoting effect and cell count; assay type: cell-based; details: 72 hr; for number of cells: negative control 5.4 × 10^5; for amount of hyaluronic acid produced: negative control = 100, n=3 average
Description: The number of cells of normal human fibroblasts was adjusted to 5.0×10^4 cells/mL in Medium 106S medium containing 2% FBS, and plated on a 24 well plate by 1.0 mL. The cell was cultured under an atmosphere of 95% (V/V) air-5% (V/V) carbon dioxide gas at 37° C. for 24 hr, and then Medium 106S medium (free of FBS) containing various concentrations of conagenin was added. After further culture for 72 hr, the culture supernatant was collected, and the concentration of hyaluronic acid released into the medium was measured by an inhibitory method (hyaluronic acid measurement kit, manufactured by SEIKAGAKU CORPORATION) utilizing a hyaluronic acid-binding protein. The method of operation was as indicated in the attached explanation insert. The results obtained using PBS as a negative control instead of conagenin was taken as 100 and the amount ratio of hyaluronic acid in the medium was calculated.

**Q.** Which results are given for `C[C@@H]([C@@H](C)O)[C@@H](O)C(=O)N[C@@](C)(CO)C(=O)O` [conagenin, (2S)—N-[(2R,3S,4R)2,4-dihydroxy-3-methyl-pentanoyl]-2-methylserine]?
**A.** melanin formation amount (human normal melanocytes; 100 μM): 92; melanin formation amount (human normal melanocytes; 1 mM): 66; melanin formation amount (human normal melanocytes; 10 mM): 17; level of whitening (B16 melanoma cells; 0.1 mM): +; change in cell mass volume (B16 melanoma cells; 0.1 mM): none; level of whitening (B16 melanoma cells; 1 mM): ++; change in cell mass volume (B16 melanoma cells; 1 mM): none; level of whitening (B16 melanoma cells; 10 mM): ++; change in cell mass volume (B16 melanoma cells; 10 mM): none; produced amount of collagen ([1]; 0.1 μM): 196; number of cells ([1]; 0.1 μM): 5.1 × 10^5; produced amount of collagen ([1]; 1 μM): 197; number of cells ([1]; 1 μM): 5.1 × 10^5; produced amount of collagen ([1]; 10 μM): 204; number of cells ([1]; 10 μM): 5.2 × 10^5; produced amount of collagen ([1]; 100 μM): 208; number of cells ([1]; 100 μM): 4.8 × 10^5; produced amount of collagen ([1]; 1 mM): 202; number of cells ([1]; 1 mM): 4.7 × 10^5; number of cells (normal human fibroblasts; 1 μM): 5.3 × 10^5; amount of hyaluronic acid produced (normal human fibroblasts; 1 μM): 108; number of cells (normal human fibroblasts; 10 μM): 5.5 × 10^5; amount of hyaluronic acid produced (normal human fibroblasts; 10 μM): 120; number of cells (normal human fibroblasts; 100 μM): 5.3 × 10^5; amount of hyaluronic acid produced (normal human fibroblasts; 100 μM): 132; number of cells (normal human fibroblasts; 1 mM): 5.1 × 10^5; amount of hyaluronic acid produced (normal human fibroblasts; 1 mM): 147; number of cells (normal human fibroblasts; 5 mM): 4.0 × 10^5; amount of hyaluronic acid produced (normal human fibroblasts; 5 mM): 199
